Measurements reported in paper PMC10866072, “Design, synthesis, molecular modelling and biological evaluation of novel 6-amino-5-cyano-2-thiopyrimidine derivatives as potent anticancer agents against leukemia and apoptotic inducers” (Journal of Enzyme Inhibition and Medicinal Chemistry, 2024).

Key:
UACC-62 = assay type: cell-based
NCI-H460 = assay type: cell-based
CAKI-1 = assay type: cell-based
HOP-62 = assay type: cell-based
EKVX = assay type: cell-based
HS 578T = assay type: cell-based
ACHN = assay type: cell-based
HCT-15 = assay type: cell-based
OVCAR-5 = assay type: cell-based
Colon cancer cell lines = assay: NCI-60 five-dose, subpanel
From the text: Furthermore, the average sensitivity of all cell lines to the compound is termed as the full panel mean graph midpoints (MG-MID). The complete panel mean graph midpoints refers to the average sensitivity of all cell lines to the chemical (MG-MID). A measure of a compound’s selectivity for a given cell line is the ratio created by dividing the full panel mean graph midpoints (MG-MID) concentration by the individual subpanel MG-MID concentrations (obtained as the average sensitivity of all the cell lines in a given subpanel to the test compound).
(§2) Assessment of selectivity of a compound depends on the ratio obtained by dividing the full panel MID ^a by their individual subpanel MID ^b (µM) where MID^a is the average sensitivity of all cell lines towards the test agent (µM).

RXF 393 = assay type: cell-based; conditions: five-dose
SF-539 = assay type: cell-based
K-562 = assay type: cell-based
[1] = tested on: P53 protein in HL60 cells; assay: Western blot; assay type: cell-based, human
Method: (§1) To assess the effect of compound 1c on protein expression of apoptotic and anti-apoptotic proteins levels, western blotting for selected candidate genes were performed[96]^,[97].Briefly, equal amounts (20 µg) of protein samples were mixed and boiled with SDS Loading buffer for 10 min, allowed to cool on ice and then loaded into SDS-polyacrylamide gel and separated by Cleaver electrophoresis unit (Cleaver, UK), transferred onto polyvinylidene fluoride (PVDF) membranes (BioRad) for 30 min using a Semi-dry Electro blotter (Biorad, USA) at 2.5 A and 25 V for 30 min. Additionally, the membrane was blocked by 5% non-fat dry milk solution in TBS-T for two hours at RT, in order to reduce non-specific protein interactions between the membrane and the antibody. Furthermore, the membrane was incubated overnight at 4 °C with primary antibodies, anti B-actin (Sigma ®), anti-Bax, anti-Bcl2, and anti-P53 (Abcam ®). The blots were then washed for three times (10 min each) with TBS-T. Finally, the membrane was incubated with the corresponding horse radish peroxidase (HRP)- linked secondary antibodies (Dako) for another hour at room temperature, followed by washing for three times (10 min each) with TBS-T. Then, the chemiluminescent reagent (ECL) was added according to the kit instructions and signals were detected by a CCD camera-based imager (Chemi Doc imager, Biorad, USA), and the bands intensities were measured by ImageLab (Biorad).

[2] = tested on: Bcl2 protein in leukaemia SR cells; assay: Western blot; assay type: cell-based, human
Method: as §1

[3] = tested on: Bcl2 protein in HL60 cells; assay: Western blot; assay type: cell-based, human
Method: as §1

[4] = tested on: Bax protein in leukaemia SR cells; assay: Western blot; assay type: cell-based, human
Method: as §1

[5] = tested on: Bax protein in HL60 cells; assay: Western blot; assay type: cell-based, human
Method: as §1

HT29 = assay type: cell-based
MOLT-4 = assay type: cell-based
HCC-2998 = assay type: cell-based
MDA-MB-468 = assay type: cell-based
UO-31 = assay type: cell-based
CCRF-CEM = assay type: cell-based
Breast cancer cell lines = assay: NCI-60 five-dose, subpanel
From the text: A measure of a compound’s selectivity for a given cell line is the ratio created by dividing the full panel mean graph midpoints (MG-MID) concentration by the individual subpanel MG-MID concentrations (obtained as the average sensitivity of all the cell lines in a given subpanel to the test compound).
as §2

T-47D = assay type: cell-based
[6] = Homo sapiens, five-dose, read-out: LC50 (the source's name)
[7] = Homo sapiens, one dose 10^-5 M, 48 h
[8] = Homo sapiens, one dose 10^-5 M, 48 h, read-out: % growth
[9] = Homo sapiens, read-out: GI50 Subpanel MID^b

Structure (SMILES): N#Cc1c(N)nc(S)nc1-c1ccc(Cl)cc1Cl [Compound 1c, 4-Amino-6–(2,4-dichlorophenyl)-2-mercaptopyrimidine-5-carbonitrile]
- GI50 (UACC-62; Homo sapiens, five-dose): 13.8 µM
- CC50 (UACC-62; [6]): 57.6 µM
- % growth at 10 µM (UACC-62; [7]): 62.7%
- TGI (UACC-62; five-dose): 28.20 µM
- GI50 (NCI-H460; Homo sapiens, five-dose): 22.1 µM
- CC50 (NCI-H460; [6]): > 100 µM
- activity at 10 µM (NCI-H460; [8]): 82.6%
- TGI (NCI-H460; five-dose): 56.80 µM
- % growth at 10 µM (CAKI-1; Homo sapiens, CAKI-1, 48 h, one dose 10^-5 M, 48 h): 72.3%
- GI50 (CAKI-1; Homo sapiens, five-dose): 18.4 µM
- CC50 (CAKI-1; [6]): > 100 µM
- TGI (CAKI-1; five-dose): 45.70 µM
- GI50 (HOP-62; Homo sapiens, five-dose): 18.2 µM
- LC50 (concentration killing 50% of cells) (HOP-62; Homo sapiens, five-dose): 88.6 µM
- % growth at 10 µM (HOP-62; [7]): 81.3%
- TGI (HOP-62; five-dose): 40.20 µM
- GI50 (EKVX; Homo sapiens, five-dose): 14.3 µM
- LC50 (EKVX; Homo sapiens, five-dose): 62.6 µM
- % cell growth at 10 µM (EKVX; [7]): 98.6%
- TGI (EKVX; five-dose): 29.90 µM
- GI50 (HS 578T; Homo sapiens, five-dose, HS 578 T): 18.8 µM
- CC50 (HS 578T; Homo sapiens, five-dose, HS 578 T, read-out: LC50 (the source's name)): > 100 µM
- activity at 10 µM (HS 578T; Homo sapiens, one dose 10^-5 M, 48 h, HS 578T, read-out: % growth): 75.3%
- TGI (HS 578T; five-dose, HS 578 T): 92.60 µM
- GI50 (ACHN; Homo sapiens, five-dose): 16.5 µM
- CC50 (ACHN; [6]): 62.1 µM
- % growth at 10 µM (ACHN; [7]): 19.6%
- TGI (ACHN; five-dose): 32.00 µM
- GI50 (HCT-15; Homo sapiens, five-dose): 0.08 µM
- CC50 (HCT-15; [6]): 97.9 µM
- activity at 10 µM (HCT-15; [8]): 10.9%
- TGI (HCT-15; five-dose): 17.90 µM
- GI50 (OVCAR-5; Homo sapiens, five-dose): 16.4 µM
- CC50 (OVCAR-5; [6]): 63.2 µM
- percent cell growth at 10 µM (OVCAR-5; [7]): 93.5%
- TGI (OVCAR-5; five-dose): 32.20 µM
- GI50 (Colon cancer cell lines; [9]): 10.9 µM
- Selectivity ratio (full panel MID^a / subpanel MID^b, GI50 level) (Colon cancer cell lines; colon cancer): 1.2
- GI50 (RXF 393; Homo sapiens): 12.7 µM
- CC50 (RXF 393; Homo sapiens, read-out: LC50 (the source's name)): 52.2 µM
- TGI (RXF 393): 25.70 µM
- GI50 (SF-539; Homo sapiens, five-dose): 10.8 µM
- CC50 (SF-539; [6]): 52.4 µM
- % growth at 10 µM (SF-539; [7]): 39.9%
- TGI (SF-539; five-dose): 23.80 µM
- GI50 (K-562; Homo sapiens, K562, five-dose): 0.14 µM
- CC50 (K-562; Homo sapiens, K562, five-dose, read-out: LC50 (the source's name)): > 100 µM
- % growth at 10 µM (K-562; Homo sapiens, K562, one dose 10^-5 M, 48 h): 36.9%
- TGI (K-562; five-dose): >100 µM
- P53 protein expression vs untreated control [1]: increased the expression of P53 protein significantly
- Bcl2 protein expression vs untreated control [2]: significantly inhibited the expression
- Bcl2 protein expression vs untreated control [3]: significantly inhibited the expression
- Bax protein expression vs untreated control [4]: significantly increased the expression
- Bax protein expression vs untreated control [5]: significantly increased the expression
- GI50 (HT29; Homo sapiens, HT-29, five-dose): 13.8 µM
- CC50 (HT29; Homo sapiens, HT-29, five-dose, read-out: LC50 (the source's name)): 68.9 µM
- % growth at 10 µM (HT29; Homo sapiens, HT-29, one dose 10^-5 M, 48 h): 24.7%
- TGI (HT29; five-dose): 30.80 µM
- GI50 (MOLT-4; Homo sapiens, five-dose): 0.7 µM
- CC50 (MOLT-4; [6]): > 100 µM
- activity at 10 µM (MOLT-4; [8]): 6.11%
- TGI (MOLT-4; five-dose): 43.90 µM
- GI50 (HCC-2998; Homo sapiens, five-dose): 13 µM
- CC50 (HCC-2998; [6]): 51.5 µM
- % growth at 10 µM (HCC-2998; [7]): 83.3%
- TGI (HCC-2998; five-dose): 25.90 µM
- GI50 (MDA-MB-468; Homo sapiens, five-dose): 11.4 µM
- CC50 (MDA-MB-468; [6]): 55.7 µM
- percent cell growth at 10 µM (MDA-MB-468; [7]): 35%
- TGI (MDA-MB-468; five-dose): 25.20 µM
- % cell growth at 10 µM (UO-31; Homo sapiens, UO-31, 48 h, one dose 10^-5 M, 48 h): 63.5%
- GI50 (UO-31; Homo sapiens, five-dose): 14.7 µM
- CC50 (UO-31; [6]): 53.6 µM
- TGI (UO-31; five-dose): 28.10 µM
- GI50 (CCRF-CEM; Homo sapiens, five-dose): 0.3 µM
- LC50 (concentration killing 50% of tumour cells) (CCRF-CEM; Homo sapiens, five-dose): > 100 µM
- % cell growth at 10 µM (CCRF-CEM; [7]): 7.65%
- TGI (CCRF-CEM; five-dose): 16.10 µM
- GI50 (Breast cancer cell lines; [9]): 11.4 µM
- Selectivity ratio (full panel MID^a / subpanel MID^b, GI50 level) (Breast cancer cell lines; breast cancer): 1.13
- GI50 (T-47D; Homo sapiens, T47D, five-dose): 9.87 µM
- CC50 (T-47D; Homo sapiens, T47D, five-dose, read-out: LC50 (the source's name)): > 100 µM
- activity at 10 µM (T-47D; Homo sapiens, T47D, one dose 10^-5 M, 48 h, read-out: % growth): 54.5%
- TGI (T-47D; five-dose): 32.30 µM
